How the values were obtained:
[1] = Test [III]: common carotid blood flow in anesthetized dogs; assay type: in vivo; details: anesthetized mongrel dogs, 20 μg/kg i.v.
Description: (§1) Mongrel dogs were anesthetized by intravenous administration of 30 mg/kg of pentobarbital, and examined under artifical respiration for the following items.
(3) Common carotid blood flow
Measured by setting an electromagnetic flow probe at the common carotid artery.
(§2) Dose and Method of Administration:
(§3) Each of the compounds shown in Tables 2 to 4 was dissolved in 0.1 N hydrochloric acid, and intravenously administered in a dose of 20 μg/kg.

[2] = Test [III]: coronary blood flow in anesthetized dogs; assay type: in vivo; details: anesthetized mongrel dogs, 20 μg/kg i.v.
Description: as §1
Measured by setting an electro magnetic flow meter probe in the left circumflex branch.
as §2, §3

[3] = Test [III]: left ventricular end diastolic pressure (LVEDP) in anesthetized dogs; assay type: in vivo; details: anesthetized mongrel dogs, 20 μg/kg i.v.
Description: as §1
(1) Left ventricular end diastolic pressure (LVEDP)
Measured by advancing a catheter transducer to the left ventricle.
as §2, §3

[4] = tested on: isolated atrial muscle of a guinea pig; assay: Test [II]: antagonistic action against isoproterenol on isolated atrial muscle (β-blocking action); details: 10^-9 to 4×10^-4 mole, control drug propranolol hydrochloride
Description: The isolated atrial muscle of a guinea pig was used, and its contractile force and heart rate were recorded. Thus, the antagonistic action of the test drug against isoproterenol was examined. The drug was used in a concentration of 10^-9 to 4×10^-4 mole. As a control drug, propranolol hydrochloride was used.

[5] = Test [I]: blood pressure in pentobarbital-anesthetized dogs, i.v.; assay type: in vivo; parameters: key to duration of hypotensive action (mark (*): especially longlasting): +: a reduction of less than 20%; ++: a reduction of 20 to 50%; +++: a reduction of more than 50%; (*): The hypotensive action is especially longlasting; details: anesthetized adult dogs, 20 μg/kg i.v.; for inhibition in vivo at 0.02 mg/kg: Canis lupus familiaris, iv, read-out: Reduction in blood pressure
Description: (§4) Adult dogs were anesthetized by intravenous administration of 30 mg/kg of pentobarbital, and examined under artificial respiration for the action of the compound of this invention on blood pressure and heart rate.
A catheter was inserted into the femoral artery, and connected to a pressure transducer for measurement of the blood pressure.
as §2
(§5) The test drug was dissolved in 0.1 N hydrochloric acid, and administered intravenously in a dose of 20 μg/kg.
(§6) The numbered compounds in the following tables correspond to the compounds obtained in the correspondingly numbered Examples given hereinbelow.

[6] = Test [I]: heart rate in pentobarbital-anesthetized dogs, i.v.; assay type: in vivo; details: Canis lupus familiaris, iv; anesthetized adult dogs, 20 μg/kg i.v.; read-out: Reduction in heart rate
Description: as §4
Measured by pulse pressure changes.
as §2, §5, §6

SMILES	Increase rate (%) in coronary flow [2]	Decrease rate (%) in LVEDP [3]	antagonistic action against isoproterenol, compared with propranolol hydrochloride [4]	inhibition in vivo at 0.02 mg/kg [5] [%]	inhibition in vivo at 0.02 mg/kg [6] [%]	further results
CC(C)NCC(O)COc1ccc(OCCO[N+](=O)[O-])c(Cl)c1 (stereo not shown) [Compound 34, 1-iso-Propylamino-3-[3-chloro-4-(2-nitratoethoxy)phenoxy]-2-propanol]	.uparw. (an increase of 30% or less)	–	–	–	–	Increase rate (%) in flow in the common carotid artery [1]: .uparw. (an increase of 30% or less)
CC(C)NCC(O)COc1cccc(OCCO[N+](=O)[O-])c1 (stereo not shown) [Compound 1, 1-iso-Propylamino-3-[3-(2-nitratoethoxy)phenoxy]-2-propanol]	–	.dwnarw..dwnarw..dwnarw. (a decrease of more than 40%)	–	–	–	–
CC(C)NCC(O)COc1ccccc1OCCCO[N+](=O)[O-] (stereo not shown) [Compound 8, 1-iso-Propylamino-3-[2-(3-nitratopropoxy)phenoxy]-2-propanol]	–	–	same degree of action as the control drug	–	–	–
COc1cc(OCCO[N+](=O)[O-])ccc1OCC(O)CNC(C)C (stereo not shown) [Compound 17, 1-iso-Propylamino-3-[2-methoxy-4-(2-nitratoethoxy)phenoxy]-2-propanol]	–	–	same degree of action as the control drug	–	–	–
C=CCOc1cc(OCCO[N+](=O)[O-])ccc1OCC(O)CNC(C)C (stereo not shown) [Compound 23, 1-iso-Propylamino-3-[2-allyloxy-4-(2-nitratoethoxy)phenoxy]-2-propanol]	–	.dwnarw..dwnarw. (a decrease of 20 to 40%)	–	20 to 50	> 50	–
CC(C)NCC(O)COc1ccc(OCCO[N+](=O)[O-])cc1OCCO[N+](=O)[O-] (stereo not shown) [Compound 50, 1-iso-Propylamino-3-[2,4-di-(2-nitratoethoxy)phenoxy]-2-propanol]	–	.dwnarw..dwnarw. (a decrease of 20 to 40%)	–	> 50	> 50	–
CC(C)NCC(O)COc1ccc(CCCCO[N+](=O)[O-])cc1 (stereo not shown) [Compound 62, 1-iso-Propylamino-3-[4-(4-nitratobutyl)phenoxy]-2-propanol]	–	.dwnarw. (a decrease of less than 20%)	–	> 50	20 to 50	–
C=CCOc1cc(OCCO[N+](=O)[O-])c(Cl)cc1OCC(O)CNC(C)C (stereo not shown) [Compound 33, 1-iso-Propylamino-3-[2-allyloxy-5-chloro-4-(2-nitratoethoxy)phenoxy]-2-propanol]	.uparw. (an increase of 30% or less)	.dwnarw. (a decrease of less than 20%)	–	20 to 50	20 to 50	Increase rate (%) in flow in the common carotid artery [1]: .uparw. (an increase of 30% or less); duration of hypotensive action (mark (*): especially longlasting) [5]: (*)
CC(C)NCC(O)COc1ccc(CCCO[N+](=O)[O-])cc1 (stereo not shown) [Compound 61, 1-iso-Propylamino-3-[4-(3-nitratopropyl)phenoxy]-2-propanol]	–	–	–	> 50	> 50	Increase rate (%) in flow in the common carotid artery [1]: .uparw. (an increase of 30% or less)
COc1ccc(OCCO[N+](=O)[O-])cc1OCC(O)CNC(C)C (stereo not shown) [Compound 13, 1-iso-Propylamino-3-[2-methoxy-5-(2-nitratoethoxy)phenoxy]-2-propanol]	–	–	same degree of action as the control drug	–	–	–
CC(C)NCC(O)COc1ccc(OCCO[N+](=O)[O-])cc1 (stereo not shown) [Compound 6, 1-iso-Propylamino-3-[4-(2-nitratoethoxy)phenoxy]-2-propanol]	.uparw..uparw. (an increase of more than 30%)	.dwnarw..dwnarw. (a decrease of 20 to 40%)	–	> 50	> 50	Increase rate (%) in flow in the common carotid artery [1]: .uparw..uparw. (an increase of more than 30%); duration of hypotensive action (mark (*): especially longlasting) [5]: (*)
CC(C)NCC(O)COc1c(OCCO[N+](=O)[O-])cccc1OCCO[N+](=O)[O-] (stereo not shown) [Compound 63, 1-iso-Propylamino-3-[2,6-di(2-nitratoethoxy)phenoxy]-2-propanol]	–	–	–	> 50	> 50	–
CC(CCc1ccccc1)NCC(O)c1ccccc1OCCO[N+](=O)[O-] (stereo not shown) [Compound 14, 1-[2-(2-Nitratoethoxy)phenyl]-2-(1-methyl-3-phenylpropyl)aminoethanol]	–	–	same degree of action as the control drug	–	–	–
CC(C)NCC(O)COc1ccc(OCCCO[N+](=O)[O-])cc1 (stereo not shown) [Compound 7, 1-iso-Propylamino-3-[4-(3-nitratopropoxy)phenoxy]-2-propanol]	.uparw..uparw. (an increase of more than 30%)	.dwnarw..dwnarw..dwnarw. (a decrease of more than 40%)	–	20 to 50	> 50	Increase rate (%) in flow in the common carotid artery [1]: .uparw..uparw. (an increase of more than 30%)
CC(C)NCC(O)COc1ccc(OCCO[N+](=O)[O-])c(C(N)=O)c1 (stereo not shown) [Compound 55, 1-iso-Propylamino-3-[3-carbamoyl-4-(2-nitratoethoxy)phenoxy]-2-propanol]	–	–	–	20 to 50	> 50	–
COc1ccc(C(O)CNC(C)CCc2ccccc2)cc1OCCO[N+](=O)[O-] (stereo not shown) [Compound 4, 1-[4-methoxy-3-(2-nitratoethoxy)phenyl]-2-(1-methyl-3-phenylpropyl)aminoethanol]	–	–	same degree of action as the control drug	–	–	–
CC(C)NCC(O)COc1ccccc1OCCCCCCO[N+](=O)[O-] (stereo not shown) [Compound 32, 1-iso-Propylamino-3-[2-(6-nitratohexyloxy)phenoxy]-2-propanol]	.uparw. (an increase of 30% or less)	–	–	–	–	–
CCC(CC)NCC(O)COc1cccc(OCCCO[N+](=O)[O-])c1 (stereo not shown) [Compound 26, 1-(1-Ethylpropyl)amino-3-[3-(3-nitratopropoxy)phenoxy]-2-propanol]	.uparw. (an increase of 30% or less)	–	–	–	–	Increase rate (%) in flow in the common carotid artery [1]: .uparw. (an increase of 30% or less)
COc1ccc(OCC(O)CNC(C)C)cc1OCCO[N+](=O)[O-] (stereo not shown) [Compound 3, 1-iso-Propylamino-3-[[4-methoxy-3-(2-nitratoethoxy)]phenoxy]-2-propanol]	–	–	same degree of action as the control drug	–	–	–
CC(C)NCC(O)COc1ccccc1OCCO[N+](=O)[O-] (stereo not shown) [Compound 2, 1-iso-Propylamino-3-[2-(2-nitrotoethoxy)phenoxy]-2-propanol]	.uparw..uparw. (an increase of more than 30%)	–	–	20 to 50	20 to 50	–
CC(C)NCC(O)COc1cccc(OCCO[N+](=O)[O-])n1 (stereo not shown) [Compound 15, 1-iso-Propylamino-3-[6-(2-nitratoethoxy)-2-pyridyloxy]-2-propanol]	–	–	same degree of action as the control drug	–	–	–

From patent US4374840A, “Certain phenyl or pyridyl-propanol-amines containing alkyl-nitrate moieties” (Kowa Company, Ltd., priority 1980, dated 1983)
